# From patent US8883785B2, “Certain kynurenine-3-monooxygenase inhibitors, pharmaceutical compositions, and methods of use thereof” (CHDI Foundation, Inc., priority 2010, dated 2014)
# Biological target: T1, KMO mouse enzyme (Mus musculus, UniProt Q91WN4)
# T1 construct: KMO enzyme prepared at Evotec from mouse liver (4-6 weeks old) via mitochondria isolation; from tissue; host or cells: mouse liver (4-6 weeks old), mitochondria isolation
# Experiment: Mouse KMO enzyme assay: L-kynurenine hydroxylation to 3OH-KYN by LC/MS
# Assay type: biochemical
# Conditions: compound at 10 μM; KMO from mouse liver mitochondria; read-out: INH.Mouse @ 10 μM
# Protocol: Product is quantified by multiple reaction monitoring (MRM method).
# IC50's are calculated using automated fitting algorithm (A+Analysis).
# T1 sequence (Q91WN4 whole entry): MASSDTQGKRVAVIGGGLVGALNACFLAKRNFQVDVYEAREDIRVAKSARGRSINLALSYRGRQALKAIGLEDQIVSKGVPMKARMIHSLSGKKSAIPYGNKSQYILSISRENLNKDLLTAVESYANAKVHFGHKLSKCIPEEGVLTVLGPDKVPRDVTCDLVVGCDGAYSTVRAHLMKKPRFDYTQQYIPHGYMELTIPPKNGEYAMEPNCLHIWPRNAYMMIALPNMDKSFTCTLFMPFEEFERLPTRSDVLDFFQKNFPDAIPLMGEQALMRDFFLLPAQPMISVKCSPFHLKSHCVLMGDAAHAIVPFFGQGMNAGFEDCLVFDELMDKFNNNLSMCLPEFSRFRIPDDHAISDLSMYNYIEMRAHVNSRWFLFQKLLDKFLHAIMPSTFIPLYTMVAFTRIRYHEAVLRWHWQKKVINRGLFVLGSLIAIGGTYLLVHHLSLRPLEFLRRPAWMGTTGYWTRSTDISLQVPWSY
row,inhibition at 10 µM [%],SMILES
1,39.1,"CNC(=O)c1ccc(-c2cc(-c3ccc(Cl)c(Cl)c3)ncn2)nc1 [6-[6-(3,4-dichlorophenyl)pyrimidin-4-yl]-N-methylpyridine-3-carboxamide]"
2,56.7,"FC(F)(F)c1ccn(-c2cc(-c3ccc(Cl)c(Cl)c3)ncn2)n1 [4-(3,4-dichlorophenyl)-6-[3-(trifluoromethyl)pyrazol-1-yl]pyrimidine]"
3,101,"Cc1coc(-c2cc(-c3cccc(Cl)c3)ncn2)n1 [4-(3-chlorophenyl)-6-(4-methyl-1,3-oxazol-2-yl)pyrimidine]"
4,100,Cc1ccc(-c2cc(-c3nnn[nH]3)ncn2)cc1F [4-(3-Fluoro-4-methyl-phenyl)-6-(1H-tetrazol-5-yl)-pyrimidine]
5,100,CC(C)Oc1ccc(-c2cc(-c3nnn[nH]3)ncn2)cc1Cl [4-(3-Chloro-4-isopropoxy-phenyl)-6-(1H-tetrazol-5-yl)-pyrimidine]
6,64.4,"FC(F)(F)c1cn(-c2cc(-c3ccc(Cl)c(Cl)c3)ncn2)cn1 [4-(3,4-dichlorophenyl)-6-[4-(trifluoromethyl)imidazol-1-yl]pyrimidine]"
7,103,Clc1cccc(-c2cc(-c3nnn[nH]3)ncn2)c1 [4-(3-chlorophenyl)-6-(1H-tetrazol-5-yl)pyrimidine]
8,103,Fc1ccc(-c2cc(-c3nnn[nH]3)ncn2)cc1Cl [4-(3-chloro-4-fluorophenyl)-6-(1H-tetrazol-5-yl)pyrimidine]
9,105,"O=c1[nH]cc(-c2cc(-c3ccc(Cl)c(Cl)c3)ncn2)[nH]1 [4-[6-(3,4-dichlorophenyl)pyrimidin-4-yl]-1,3-dihydroimidazol-2-one]"
10,100,FC(F)(F)Oc1ccc(-c2cc(-c3nnn[nH]3)ncn2)cc1Cl [4-(3-Chloro-4-trifluoromethoxy-phenyl)-6-(1H-tetrazol-5-yl)-pyrimidine]
11,101,"Fc1ccc(-c2cc(-c3nnn[nH]3)ncn2)cc1F [4-(3,4-difluorophenyl)-6-(1H-tetrazol-5-yl)pyrimidine]"
12,91.2,Cn1nnc(-c2cc(-c3cccc(Cl)c3)ncn2)n1 [4-(3-chlorophenyl)-6-(2-methyltetrazol-5-yl)pyrimidine]
13,65.6,Cn1nnnc1-c1cc(-c2cccc(Cl)c2)ncn1 [4-(3-chlorophenyl)-6-(1-methyltetrazol-5-yl)pyrimidine]
14,80,"Cc1nnc(-c2cc(-c3ccc(Cl)c(Cl)c3)ncn2)[nH]1 [4-(3,4-dichlorophenyl)-6-(5-methyl-4H-1,2,4-triazol-3-yl)pyrimidine]"
15,58.1,"O=c1[nH]nc(-c2cc(-c3ccc(Cl)c(Cl)c3)ncn2)[nH]1 [5-[6-(3,4-dichlorophenyl)pyrimidin-4-yl]-2,4-dihydro-1,2,4-triazol-3-one]"
16,91,"Cc1noc(-c2cc(-c3cccc(Cl)c3)ncn2)n1 [4-(3-chlorophenyl)-6-(3-methyl-1,2,4-oxadiazol-5-yl)pyrimidine]"
17,87,"FC(F)(F)c1nc(-c2cc(-c3ccc(Cl)c(Cl)c3)ncn2)no1 [4-(3,4-dichlorophenyl)-6-[5-(trifluoromethyl)-1,2,4-oxadiazol-3-yl]pyrimidine]"
18,39.1,Clc1cccc(-c2cc(-c3nc4ccc(Cl)cc4[nH]3)ncn2)c1 [6-chloro-2-[6-(3-chlorophenyl)pyrimidin-4-yl]-1H-benzimidazole]
19,73.6,"Cn1[nH]cc(-c2cc(-c3ccc(Cl)c(Cl)c3)ncn2)c1=O [4-[6-(3,4-dichlorophenyl)pyrimidin-4-yl]-2-methyl-1H-pyrazol-3-one]"
20,51,"Cc1nc(-c2cc(-c3ccc(Cl)c(Cl)c3)ncn2)no1 [4-(3,4-dichlorophenyl)-6-(5-methyl-1,2,4-oxadiazol-3-yl)pyrimidine]"
21,102,"Clc1cccc(-c2cc(-c3nnc[nH]3)ncn2)c1 [4-(3-chlorophenyl)-6-(4H-1,2,4-triazol-3-yl)pyrimidine]"

# Continued, compound first:
row,SMILES,inhibition at 10 µM [%]
1,"Clc1ccc(-c2cc(-c3cc[nH]n3)ncn2)cc1Cl [4-(3,4-Dichloro-phenyl)-6-(1H-pyrazol-3-yl)-pyrimidine]",19
2,"Clc1ccc(-c2cc(-c3ncc[nH]3)ncn2)cc1Cl [4-(3,4-dichlorophenyl)-6-(1H-imidazol-2-yl)pyrimidine]",99
3,"Cc1c[nH]c(-c2cc(-c3ccc(Cl)c(Cl)c3)ncn2)n1 [4-(3,4-dichlorophenyl)-6-(4-methyl-1H-imidazol-2-yl)pyrimidine]",92.3
4,"O=c1[nH]c(-c2cc(-c3ccc(F)c(Cl)c3)ncn2)no1 [3-[6-(3-Chloro-4-fluoro-phenyl)-pyrimidin-4-yl]-4H-[1,2,4]oxadiazol-5-one]",100
5,"Clc1ccc(-c2cc(C3=NCCN3)ncn2)cc1Cl [4-(3,4-dichlorophenyl)-6-(4,5-dihydro-1H-imidazol-2-yl)pyrimidine]",95.5
6,"O=c1[nH]c(-c2cc(-c3ccc(F)c(F)c3)ncn2)no1 [3-[6-(3,4-Difluoro-phenyl)-pyrimidin-4-yl]-4H-[1,2,4]oxadiazol-5-one]",100
7,"Clc1cccc(-c2cc(-c3nc4ccccc4o3)ncn2)c1 [2-[6-(3-chlorophenyl)pyrimidin-4-yl]-1,3-benzoxazole]",54.4
8,"Cc1ccc(-c2cc(-c3noc(=O)[nH]3)ncn2)cc1F [3-[6-(3-Fluoro-4-methyl-phenyl)-pyrimidin-4-yl]-4H-[1,2,4]oxadiazol-5-one]",100
9,"Cc1coc(-c2cc(-c3ccc(Cl)c(Cl)c3)ncn2)n1 [4-(3,4-dichlorophenyl)-6-(4-methyl-1,3-oxazol-2-yl)pyrimidine]",101
10,"Clc1ccc(-c2cc(-c3nnc[nH]3)ncn2)cc1Cl [4-(3,4-dichlorophenyl)-6-(4H-1,2,4-triazol-3-yl)pyrimidine]",100
11,"O=c1[nH]c(-c2cc(-c3ccc(OC(F)(F)F)c(Cl)c3)ncn2)no1 [3-[6-(3-Chloro-4-trifluoromethoxy-phenyl)-pyrimidin-4-yl]-4H-[1,2,4]oxadiazol-5-one]",99
12,"S=c1[nH]c(-c2cc(-c3ccc(Cl)c(Cl)c3)ncn2)no1 [3-[6-(3,4-dichlorophenyl)pyrimidin-4-yl]-4H-1,2,4-oxadiazole-5-thione]",102
13,"Cc1ccc(-c2cc(-c3noc(=O)[nH]3)ncn2)cc1Cl [3-[6-(3-Chloro-4-methyl-phenyl)-pyrimidin-4-yl]-4H-[1,2,4]oxadiazol-5-one]",98
14,"O=c1[nH]c(-c2cc(-c3cccc(Cl)c3)ncn2)no1 [3-[6-(3-chlorophenyl)pyrimidin-4-yl]-4H-1,2,4-oxadiazol-5-one]",96.3
15,"Clc1ccc(-c2cc(-c3nc4ccccc4[nH]3)ncn2)cc1Cl [2-[6-(3,4-dichlorophenyl)pyrimidin-4-yl]-1H-benzimidazole]",49.7
16,"Clc1ccc(-c2cc(-c3ncco3)ncn2)cc1Cl [4-(3,4-Dichloro-phenyl)-6-oxazol-2-yl-pyrimidine]",93
17,"Clc1ccc(-c2cc(-c3nccs3)ncn2)cc1Cl [4-(3,4-Dichloro-phenyl)-6-thiazol-2-yl-pyrimidine]",48
18,"Cc1coc(-c2cc(-c3ccc(Cl)c(Cl)c3)nc(C)n2)n1 [4-(3,4-dichlorophenyl)-2-methyl-6-(4-methyl-1,3-oxazol-2-yl)pyrimidine]",46.8
19,"O=c1[nH]c(-c2cc(-c3cncc(Cl)c3)ncn2)no1 [3-[6-(5-chloropyridin-3-yl)pyrimidin-4-yl]-4H-1,2,4-oxadiazol-5-one]",65.2
20,"CC(C)Oc1ccc(-c2cc(-c3noc(=O)[nH]3)ncn2)cc1Cl [3-[6-(3-Chloro-4-isopropoxy-phenyl)-pyrimidin-4-yl]-4H-[1,2,4]oxadiazol-5-one]",96
21,Clc1cccc(-c2cc(-c3nc4ccccc4[nH]3)ncn2)c1 [2-[6-(3-chlorophenyl)pyrimidin-4-yl]-1H-benzimidazole],102

# System: not listed separately
# Experiment: Solubility remark made when LCMS was attempted
# Assay type: physicochemical
# Conditions: solvents for LCMS
row,SMILES,solubility
1,"O=c1[nH]nc(-c2cc(-c3ccc(Cl)c(Cl)c3)ncn2)[nH]1 [5-[6-(3,4-dichlorophenyl)pyrimidin-4-yl]-2,4-dihydro-1,2,4-triazol-3-one]","very unsoluble compound- LCMS unobtainable 1H NMR (250 MHz, DMSO-d6) d ppm 9.27-9.32 (1 H, m), 8.39- 8.47 (2 H, m), 8.17-8.25 (1 H, m), 7.76-7.85 (1 H, m)"
2,"Cn1[nH]cc(-c2cc(-c3ccc(Cl)c(Cl)c3)ncn2)c1=O [4-[6-(3,4-dichlorophenyl)pyrimidin-4-yl]-2-methyl-1H-pyrazol-3-one]","Compound is insuffciently souble in any acceptable solvent in order to obtain a meaningful LCMS 1H NMR (500 MHz, DMSO-d6) d ppm 8.88 (1H, s), 8.44 (1H, br.s.), 8.26 (1H, br.s.), 8.19 (1H, d), 8.06 (1H, br.s.), 7.85 (1H, d), 3.45 (3H, s)"
